Results: PubChem BioAssay (NCI)
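Interpolation was linear, between the two tested concentrations surrounding the appropriate level; five concentrations were tested over 48 hours in 96-well plates. Definition used: TGI = concentration required for complete inhibition of growth.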

What was measured:
Test in all cases: NCI-60 cell line screen, 48 h
[1] = system: DU-145 prostate
[2] = system: UO-31 renal
[3] = system: SK-MEL-28 melanoma
[4] = system: BT-549 breast
[5] = system: MDA-MB-435
[6] = system: COLO 205 colon
[7] = system: 786-0 renal
[8] = system: SF-539 CNS
[9] = system: SF-268 CNS
[10] = system: EKVX NSCLC
[11] = system: SW-620 colon
[12] = system: IGROV1 ovarian
[13] = system: SNB-19 CNS
[14] = system: UACC-62 melanoma
[15] = system: HCT-15 colon
[16] = system: CCRF-CEM leukemia
[17] = system: SR leukemia
[18] = system: HOP-62 NSCLC
[19] = system: K-562 leukemia
[20] = system: MDA-N
[21] = system: HS 578T breast
[22] = system: HOP-92 NSCLC
[23] = system: SK-MEL-5 melanoma
[24] = system: SK-MEL-2 melanoma
[25] = system: SN12C renal
[26] = system: LOX IMVI melanoma
[27] = system: TK-10 renal
[28] = system: CAKI-1 renal
[29] = system: ACHN renal
[30] = system: MCF7 breast
[31] = system: OVCAR-5 ovarian
[32] = system: A549 NSCLC
[33] = system: PC-3 prostate
[34] = system: UACC-257 melanoma
[35] = system: MOLT-4 leukemia
[36] = system: T-47D breast
[37] = system: MDA-MB-231 breast
[38] = system: M14 melanoma
[39] = system: KM12 colon
[40] = system: A498 renal
[41] = system: OVCAR-3 ovarian
[42] = system: NCI-H23 lung
[43] = system: HCT-116 colon
[44] = system: U251 CNS
[45] = system: NCI-H226 lung
[46] = system: SK-OV-3 ovarian
[47] = system: RPMI-8226 leukemia
[48] = system: NCI-H460 lung
[49] = system: HL-60(TB) leukemia
[50] = system: SF-295 CNS
[51] = system: HT29 colon
[52] = system: OVCAR-8 ovarian
[53] = system: MALME-3M melanoma
[54] = system: RXF 393 renal
[55] = system: NCI/ADR-RES ovarian
[56] = system: SNB-75 CNS
[57] = system: HCC-2998 colon
[58] = system: NCI-H522 lung
[59] = system: OVCAR-4 ovarian

With Cc1ccc(/C=N/n2c(=O)[nH]c3ccccc3c2=O)cc1 the TGI [1] was over 100 µM, the TGI [2] was over 100 µM and the TGI [3] was over 100 µM. It also gave a TGI [4] of over 100 µM, a TGI [5] of over 100 µM and a TGI [6] of over 100 µM. For the same compound, the TGI [7] was over 100 µM, the TGI [8] was over 100 µM and the TGI [9] was over 100 µM. The TGI [10] was over 100 µM, the TGI [11] was over 100 µM and the TGI [12] was over 100 µM. It also gave a TGI [13] of over 100 µM, a TGI [14] of over 100 µM and a TGI [15] of over 100 µM. For the same compound, the TGI [16] was over 100 µM, the TGI [17] was over 100 µM and the TGI [18] was over 100 µM. The TGI [19] was over 100 µM, the TGI [20] was over 100 µM and the TGI [21] was over 100 µM. The TGI [22] was over 100 µM, the TGI [23] was over 100 µM and the TGI [24] was over 100 µM. It also gave a TGI [25] of over 100 µM, a TGI [26] of over 100 µM and a TGI [27] of over 100 µM. For the same compound, the TGI [28] was over 100 µM, the TGI [29] was over 100 µM and the TGI [30] was over 100 µM. For the same compound, the TGI [31] was over 100 µM, the TGI [32] was over 100 µM and the TGI [33] was over 100 µM. It also gave a TGI [34] of over 100 µM, a TGI [35] of over 100 µM and a TGI [36] of over 100 µM. For the same compound, the TGI [37] was over 100 µM, the TGI [38] was over 100 µM and the TGI [39] was over 100 µM. It also gave a TGI [40] of over 100 µM, a TGI [41] of over 100 µM and a TGI [42] of over 100 µM. The TGI [43] was over 100 µM, the TGI [44] was over 100 µM and the TGI [45] was over 100 µM. For the same compound, the TGI [46] was over 100 µM, the TGI [47] was over 100 µM and the TGI [48] was over 100 µM. For the same compound, the TGI [49] was over 100 µM, the TGI [50] was over 100 µM and the TGI [51] was over 100 µM.
Compound CC(=O)n1nc(-c2ccccc2)n(/N=C/c2ccc([N+](=O)[O-])cc2)c1=O has a TGI [1] of over 100 µM, a TGI [2] of over 100 µM and a TGI [3] of over 100 µM. For the same compound, the TGI [4] was over 100 µM, the TGI [5] was over 100 µM and the TGI [52] was over 100 µM. The TGI [6] was over 100 µM, the TGI [7] was over 100 µM and the TGI [8] was over 100 µM. For the same compound, the TGI [9] was over 100 µM, the TGI [53] was over 100 µM and the TGI [10] was over 100 µM. The TGI [11] was over 100 µM, the TGI [12] was over 100 µM and the TGI [13] was over 100 µM. For the same compound, the TGI [54] was over 100 µM, the TGI [14] was over 100 µM and the TGI [55] was over 100 µM. For the same compound, the TGI [15] was over 100 µM, the TGI [16] was over 100 µM and the TGI [17] was over 100 µM. For the same compound, the TGI [19] was over 100 µM, the TGI [20] was over 100 µM and the TGI [22] was over 100 µM. For the same compound, the TGI [23] was over 100 µM, the TGI [24] was over 100 µM and the TGI [56] was over 100 µM. It also gave a TGI [25] of over 100 µM, a TGI [26] of over 100 µM and a TGI [27] of over 100 µM. The TGI [28] was over 100 µM, the TGI [29] was over 100 µM and the TGI [31] was over 100 µM. The TGI [32] was over 100 µM, the TGI [33] was over 100 µM and the TGI [34] was over 100 µM. It also gave a TGI [35] of over 100 µM, a TGI [36] of over 100 µM and a TGI [37] of over 100 µM. The TGI [38] was over 100 µM, the TGI [39] was over 100 µM and the TGI [40] was over 100 µM. It also gave a TGI [41] of over 100 µM, a TGI [57] of over 100 µM and a TGI [42] of over 100 µM. The TGI [58] was over 100 µM, the TGI [43] was over 100 µM and the TGI [44] was over 100 µM. The TGI [45] was over 100 µM, the TGI [46] was over 100 µM and the TGI [47] was over 100 µM. The TGI [48] was over 100 µM, the TGI [49] was over 100 µM and the TGI [59] was over 100 µM. For the same compound, the TGI [50] was over 100 µM and the TGI [51] was over 100 µM.
In the case of Cc1cccc(-c2nc3ccc([N+](=O)[O-])cc3c(=O)o2)c1, the TGI [1] is reported as over 100 µM, the TGI [2] is reported as over 100 µM and the TGI [3] is reported as over 100 µM. It also gave a TGI [4] of over 100 µM, a TGI [5] of over 100 µM and a TGI [52] of over 100 µM. The TGI [6] was over 100 µM, the TGI [7] was over 100 µM and the TGI [8] was over 100 µM. The TGI [9] was over 100 µM, the TGI [53] was over 100 µM and the TGI [11] was over 100 µM. For the same compound, the TGI [12] was over 100 µM, the TGI [54] was over 100 µM and the TGI [14] was over 100 µM. For the same compound, the TGI [55] was over 100 µM, the TGI [15] was over 100 µM and the TGI [16] was 96.7 µM. It also gave a TGI [17] of over 100 µM, a TGI [18] of over 100 µM and a TGI [19] of over 100 µM. For the same compound, the TGI [20] was over 100 µM, the TGI [21] was 97.9 µM and the TGI [22] was 93 µM. The TGI [23] was over 100 µM, the TGI [24] was over 100 µM and the TGI [56] was over 100 µM. It also gave a TGI [25] of over 100 µM, a TGI [26] of over 100 µM and a TGI [27] of over 100 µM. It also gave a TGI [28] of over 100 µM, a TGI [29] of over 100 µM and a TGI [30] of over 100 µM. It also gave a TGI [31] of over 100 µM, a TGI [32] of over 100 µM and a TGI [33] of over 100 µM. It also gave a TGI [34] of over 100 µM, a TGI [35] of over 100 µM and a TGI [36] of over 100 µM. The TGI [37] was over 100 µM, the TGI [39] was over 100 µM and the TGI [40] was over 100 µM. It also gave a TGI [41] of over 100 µM, a TGI [57] of over 100 µM and a TGI [42] of over 100 µM. The TGI [58] was over 100 µM, the TGI [43] was over 100 µM and the TGI [44] was over 100 µM. The TGI [45] was over 100 µM, the TGI [46] was over 100 µM and the TGI [47] was over 100 µM. For the same compound, the TGI [48] was over 100 µM, the TGI [49] was over 100 µM and the TGI [59] was over 100 µM. It also gave a TGI [50] of over 100 µM and a TGI [51] of over 100 µM.
With Cc1cc(N(CCC#N)CCC#N)ccc1/C(N=Nc1ccc([N+](=O)[O-])cc1)=N\NC(=O)c1cc(Cl)ccc1C(=O)c1ccccc1 the TGI [1] was 56.8 µM, the TGI [2] was 60.5 µM and the TGI [3] was over 100 µM. It also gave a TGI [4] of over 100 µM, a TGI [5] of over 100 µM and a TGI [52] of 26.1 µM. It also gave a TGI [6] of 40.6 µM, a TGI [7] of 52.7 µM and a TGI [9] of 42.3 µM. For the same compound, the TGI [53] was 31.1 µM, the TGI [10] was 28.3 µM and the TGI [11] was 82.2 µM. For the same compound, the TGI [12] was 17.9 µM, the TGI [13] was over 100 µM and the TGI [54] was 57.9 µM. It also gave a TGI [14] of 36.9 µM, a TGI [55] of 50.9 µM and a TGI [15] of 37.2 µM. For the same compound, the TGI [16] was 12.5 µM, the TGI [18] was over 100 µM and the TGI [19] was over 100 µM. The TGI [20] was over 100 µM, the TGI [21] was 68 µM and the TGI [23] was 27.3 µM. For the same compound, the TGI [24] was 57.8 µM, the TGI [56] was over 100 µM and the TGI [25] was over 100 µM. It also gave a TGI [27] of over 100 µM, a TGI [28] of 62.5 µM and a TGI [29] of over 100 µM. The TGI [30] was 26.1 µM, the TGI [31] was over 100 µM and the TGI [32] was over 100 µM. For the same compound, the TGI [33] was 83.3 µM, the TGI [34] was over 100 µM and the TGI [35] was 38.8 µM. The TGI [36] was 50.3 µM, the TGI [37] was 91 µM and the TGI [38] was over 100 µM. It also gave a TGI [39] of 47.8 µM, a TGI [41] of over 100 µM and a TGI [57] of 30.3 µM. For the same compound, the TGI [42] was 38.6 µM, the TGI [58] was 6.17 µM and the TGI [43] was 23.6 µM. It also gave a TGI [44] of over 100 µM, a TGI [45] of 34.1 µM and a TGI [46] of over 100 µM. The TGI [47] was 38.4 µM, the TGI [48] was 43.2 µM and the TGI [59] was 95 µM. For the same compound, the TGI [50] was over 100 µM and the TGI [51] was 27.4 µM.
